Here are results for eleven molecules from ChEMBL document CHEMBL1145222, “Synthesis and in vitro study of novel Mannich bases as antibacterial agents” (2005).

Assay type in all cases: functional
Assay [1] has as its system Escherichia coli. Kind of assay: Zone of inhibition of Escherichia coli at compound concentration of 40 mg/mL.
Assay [2] relates to Klebsiella pneumoniae. Kind of assay: Zone of inhibition of Klebsiella pneumoniae at compound concentration of 40 mg/mL.
Assay [3] concerns Escherichia coli. Kind of assay: Zone of inhibition of Escherichia coli at compound concentration of 160 mg/mL.
In assay [4] the test system is Klebsiella pneumoniae. Kind of assay: Zone of inhibition of Klebsiella pneumoniae at compound concentration of 80 mg/mL.
The test system of assay [5] is Staphylococcus aureus. Kind of assay: Zone of inhibition of Staphylococcus aureus at compound concentration of 160 mg/mL.
For assay [6], the system named is Klebsiella pneumoniae. Kind of assay: Zone of inhibition of Klebsiella pneumoniae at compound concentration of 160 mg/mL.
For assay [7], the system named is Pseudomonas aeruginosa. Kind of assay: Zone of inhibition of Pseudomonas aeruginosa at compound concentration of 40 mg/mL.
Assay [8] concerns Bacillus subtilis. Kind of assay: Zone of inhibition of Bacillus subtilis at compound concentration of 80 mg/mL.
Assay [9] deals with Bacillus subtilis. Kind of assay: Zone of inhibition of Bacillus subtilis at compound concentration of 160 mg/mL.
For assay [10], the system named is Pseudomonas aeruginosa. Kind of assay: Zone of inhibition of Pseudomonas aeruginosa at compound concentration of 160 mg/mL.
Assay [11] deals with Staphylococcus aureus. Kind of assay: Zone of inhibition of Staphylococcus aureus at compound concentration of 40 mg/mL.
Assay [12] has as its system Bacillus subtilis. Kind of assay: Zone of inhibition of Bacillus subtilis at compound concentration of 40 mg/mL.
For assay [13], the system named is Pseudomonas aeruginosa. Kind of assay: Zone of inhibition of Pseudomonas aeruginosa at compound concentration of 80 mg/mL.
Assay [14] has as its system Escherichia coli. Kind of assay: Zone of inhibition of Escherichia coli at compound concentration of 80 mg/mL.
The subject of assay [15] is Staphylococcus aureus. Kind of assay: Zone of inhibition of Staphylococcus aureus at compound concentration of 80 mg/mL.
The subject of assay [16] is Escherichia coli. Kind of assay: Zone of inhibition Escherichia coli Escherichia coli at compound concentration of 160 mg/mL.
Assay [17] concerns Escherichia coli. Kind of assay: Zone of inhibition Escherichia coli Escherichia coli at compound concentration of 80 mg/mL.
Assay [18] concerns Escherichia coli. Kind of assay: Zone of inhibition Escherichia coli at compound concentration of 40 mg/mL.
For assay [19], the system named is Salmonella enterica subsp. enterica serovar Typhi. Kind of assay: Zone of inhibition of Salmonella typhae at compound concentration of 40 mg/mL.
The test system is the same in assay [20]. Kind of assay: Zone of inhibition of Salmonella typhae at compound concentration of 80 mg/mL.
Assay [21] has the same test system. Kind of assay: Zone of inhibition of Salmonella typhae at compound concentration of 160 mg/mL.
The test system of assay [22] is Escherichia coli. Kind of assay: Zone of inhibition Escherichia coli at compound concentration of 160 mg/mL.
Assay [23] has as its system Escherichia coli. Kind of assay: Zone of inhibition Escherichia coli at compound concentration of 80 mg/mL.
The test system of assay [24] is Klebsiella pneumoniae. Kind of assay: Zone of inhibition Klebsiella pneumoniae at compound concentration of 160 mg/mL.
The subject of assay [25] is Klebsiella pneumoniae. Kind of assay: Zone of inhibition Klebsiella pneumoniae at compound concentration of 80 mg/mL.
Assay [26] relates to Klebsiella pneumoniae. Kind of assay: Zone of inhibition Klebsiella pneumoniae at compound concentration of 40 mg/mL.

In the case of `COc1ccc(Cl)cc1C(=O)NCN1CCOCC1`, the Inhibition with Escherichia coli [1] is given as 9.5 mm; in the assay with Klebsiella pneumoniae [2], 10.5 mm; with Escherichia coli [3], 12.5 mm; in the assay with Klebsiella pneumoniae [4], 12.5 mm; in the assay on Staphylococcus aureus [5], 16.5 mm; in the assay with Klebsiella pneumoniae [6], 14.5 mm. Moreover, the Inhibition in the assay with Pseudomonas aeruginosa [7] worked out at 9.5 mm; in the assay with Bacillus subtilis [8], 9 mm; in the assay on Bacillus subtilis [9] it was 10.5 mm; with Pseudomonas aeruginosa [10] it was 12 mm; in the assay on Staphylococcus aureus [11], 11 mm; in the assay with Bacillus subtilis [12], 8.5 mm. The Inhibition is recorded as 10.5 mm with Pseudomonas aeruginosa [13], 10.5 mm in the assay with Escherichia coli [14] and 13.5 mm with Staphylococcus aureus [15].

On to `COc1ccc(Cl)cc1C(=O)NCNc1ccc(S(=O)(=O)NN)cc1`, for which the Inhibition with Klebsiella pneumoniae [2] is recorded as 7 mm; with Klebsiella pneumoniae [4], 7.5 mm; in the assay with Escherichia coli [16], 8.5 mm; in the assay on Staphylococcus aureus [5], 11 mm; in the assay with Klebsiella pneumoniae [6], 9.5 mm; in the assay with Pseudomonas aeruginosa [7], 7.5 mm. Moreover, the Inhibition in the assay on Bacillus subtilis [8] was determined as 7.5 mm; with Escherichia coli [17], 7.5 mm; in the assay with Bacillus subtilis [9] it was 11.5 mm; in the assay on Pseudomonas aeruginosa [10], 8.5 mm; in the assay on Staphylococcus aureus [11] it was 7.5 mm; in the assay on Escherichia coli [18], 7 mm. For the same molecule, the Inhibition with Bacillus subtilis [12] amounted to 7 mm; in the assay with Pseudomonas aeruginosa [13] it was 8 mm; in [19], 7 mm; with Staphylococcus aureus [15], 8.5 mm; in assay [20] it was 7.5 mm; in assay [21], 8 mm.

As for `COc1ccc(Cl)cc1C(=O)NCNc1ccc(S(=O)(=O)[N-]C(C)=O)cc1.[Na+]`, the Inhibition in the assay on Klebsiella pneumoniae [2] came to 10 mm; in the assay with Klebsiella pneumoniae [4] it was 12.5 mm; with Staphylococcus aureus [5], 22 mm; in the assay on Klebsiella pneumoniae [6], 15.5 mm; with Escherichia coli [22] it was 13 mm; with Pseudomonas aeruginosa [7], 9.5 mm. Also, the Inhibition in the assay on Bacillus subtilis [8] was determined as 12.5 mm; with Bacillus subtilis [9], 16.5 mm; with Pseudomonas aeruginosa [10] it was 14.5 mm; with Staphylococcus aureus [11] it was 10.5 mm; in the assay with Escherichia coli [23] it was 10.5 mm; in the assay on Escherichia coli [18], 9.5 mm. In addition, the Inhibition in the assay on Bacillus subtilis [12] was found to be 10.5 mm; with Pseudomonas aeruginosa [13] it was 12.5 mm; in assay [19] it was 10.5 mm; in the assay on Staphylococcus aureus [15], 14.5 mm; in assay [20], 14.5 mm; in assay [21], 22 mm.

Turning to `COc1ccc(Cl)cc1C(=O)NCN(CCO)CCO`, the Inhibition was 7.5 mm in the assay with Klebsiella pneumoniae [24]; 8.5 mm with Escherichia coli [22]; 7.5 mm in the assay with Klebsiella pneumoniae [25]; 7.5 mm in the assay on Bacillus subtilis [8]; 8.5 mm in the assay on Bacillus subtilis [9]; 7 mm in the assay with Klebsiella pneumoniae [26]. The Inhibition is on record as 7.5 mm in the assay with Escherichia coli [23], 7 mm in the assay on Escherichia coli [18] and 7 mm in the assay on Bacillus subtilis [12].

`Cc1cc(NS(=O)(=O)c2ccc(N)cc2)no1` [SULFAMETHOXAZOLE]: the Inhibition in the assay on Escherichia coli [1] was 18.5 mm; in the assay on Klebsiella pneumoniae [2], 8.5 mm; with Klebsiella pneumoniae [4], 9 mm; in the assay with Staphylococcus aureus [5] it was 21 mm; with Klebsiella pneumoniae [6], 11.5 mm; in the assay with Bacillus subtilis [8], 18.5 mm. Besides, the Inhibition in the assay with Bacillus subtilis [9] was determined as 20 mm; with Staphylococcus aureus [11] it was 19.5 mm; in the assay on Bacillus subtilis [12] it was 15.5 mm; in [19] it was 8.5 mm; in the assay with Escherichia coli [14], 20.5 mm; in the assay on Staphylococcus aureus [15], 20.5 mm. For the same molecule, the Inhibition in [20] was determined as 9 mm; in assay [21] it was 12.5 mm.

Regarding `COc1ccc(Cl)cc1C(=O)NCNc1ccc(S(=O)(=O)Nc2ncccn2)cc1`, the Inhibition stood at 8 mm in the assay on Escherichia coli [1]; 7.5 mm in the assay on Klebsiella pneumoniae [2]; 9.5 mm in the assay with Escherichia coli [3]; 8 mm with Klebsiella pneumoniae [4]; 15 mm with Staphylococcus aureus [5]; 8.5 mm in the assay with Klebsiella pneumoniae [6]. Further, the Inhibition is recorded as 7.5 mm with Pseudomonas aeruginosa [7]; 7 mm with Bacillus subtilis [8]; 7.5 mm with Bacillus subtilis [9]; 8.5 mm with Pseudomonas aeruginosa [10]; 9.5 mm with Staphylococcus aureus [11]; 7 mm in the assay on Bacillus subtilis [12]. Besides, the Inhibition was 7.5 mm with Pseudomonas aeruginosa [13]; 7 mm in [19]; 8.5 mm with Escherichia coli [14]; 11.5 mm in the assay with Staphylococcus aureus [15]; 7 mm in assay [20]; 7.5 mm in assay [21].

In the case of `COc1ccc(Cl)cc1C(=O)NCN(C)C`, the Inhibition amounted to 7 mm in the assay on Klebsiella pneumoniae [2]; 7.5 mm in the assay on Klebsiella pneumoniae [4]; 7.5 mm with Klebsiella pneumoniae [6]; 7 mm with Pseudomonas aeruginosa [7]; 7.5 mm with Pseudomonas aeruginosa [10]; 7.5 mm with Pseudomonas aeruginosa [13].

`CC(=O)[N-]S(=O)(=O)c1ccc(N)cc1.[Na+]`: the Inhibition is given as 24 mm with Staphylococcus aureus [5]; 10 mm with Bacillus subtilis [8]; 15 mm in the assay on Bacillus subtilis [9]; 19.5 mm in the assay with Staphylococcus aureus [11]; 9.5 mm in the assay on Bacillus subtilis [12]; 21 mm with Staphylococcus aureus [15].

As to `COc1ccc(Cl)cc1C(=O)NCN(c1ccccc1)c1ccccc1`, the Inhibition is on record as 7 mm with Klebsiella pneumoniae [2]; 7 mm with Klebsiella pneumoniae [4]; 8 mm in the assay with Klebsiella pneumoniae [6]; 7.5 mm in the assay on Bacillus subtilis [8]; 8 mm in the assay with Bacillus subtilis [9]; 7.5 mm in the assay with Bacillus subtilis [12]. Moreover, the Inhibition in assay [19] was determined as 7.5 mm; in assay [20], 7.5 mm; in [21] it was 8.5 mm.

Take `Nc1ccc(S(=O)(=O)Nc2ncccn2)cc1` [SULFADIAZINE]: the Inhibition with Escherichia coli [1] amounted to 8.5 mm; with Klebsiella pneumoniae [2] it was 12.5 mm; with Escherichia coli [3], 12.5 mm; with Klebsiella pneumoniae [4], 13.5 mm; in the assay on Staphylococcus aureus [5], 9.5 mm; in the assay with Klebsiella pneumoniae [6], 15 mm. Besides, the Inhibition in the assay on Bacillus subtilis [8] came out at 9.5 mm; in the assay on Bacillus subtilis [9], 13.5 mm; in the assay on Staphylococcus aureus [11], 7 mm; with Bacillus subtilis [12] it was 8.5 mm; in [19] it was 7 mm; in the assay with Escherichia coli [14] it was 9.5 mm. Moreover, the Inhibition with Staphylococcus aureus [15] was determined as 7.5 mm; in assay [20] it was 7.5 mm; in assay [21], 9 mm.

Regarding `Nc1ccc(S(N)(=O)=O)cc1` [SULFANILAMIDE], the Inhibition is 16.5 mm in the assay on Escherichia coli [1]; 20.5 mm with Escherichia coli [3]; 25 mm with Staphylococcus aureus [5]; 13.5 mm in the assay with Pseudomonas aeruginosa [7]; 11.5 mm in the assay on Bacillus subtilis [8]; 13 mm in the assay on Bacillus subtilis [9]. The Inhibition amounted to 17.5 mm in the assay with Pseudomonas aeruginosa [10]; 20.5 mm with Staphylococcus aureus [11]; 10.5 mm in the assay with Bacillus subtilis [12]; 15.5 mm in the assay with Pseudomonas aeruginosa [13]; 7 mm in assay [19]; 18 mm in the assay on Escherichia coli [14]. Also, the figures for the Inhibition (in the assay on Staphylococcus aureus [15]; in [20]; in assay [21]) were 22.5 mm, 7.5 mm and 7.5 mm, respectively.
